From US8389739B1, “Modulators of retinoid-related orphan receptor gamma” (Orphagen Pharmaceuticals, priority 2006, dated 2013)
Like-named read-outs stand apart in the source and are kept apart here.

Key:
mRORγ LBD = biological target: T1, mRORγ LBD (Mus musculus, UniProt P51450); experiment: Biochemical assay, coregulatory peptide recruitment to GST-RORγ LBD (FRET)
T1 construct: made in house; host or cells: Sf9 insect cells, baculovirus; cleared lysate used directly
T1 sequence (P51450 251-516): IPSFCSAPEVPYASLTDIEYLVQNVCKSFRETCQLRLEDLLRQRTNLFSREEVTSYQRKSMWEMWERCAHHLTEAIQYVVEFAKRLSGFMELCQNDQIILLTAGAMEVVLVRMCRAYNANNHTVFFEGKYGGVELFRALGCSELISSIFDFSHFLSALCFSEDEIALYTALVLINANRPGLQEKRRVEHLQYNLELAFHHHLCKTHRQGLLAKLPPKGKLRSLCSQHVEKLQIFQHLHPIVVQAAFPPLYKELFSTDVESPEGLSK
Source text: GST-RORγ was generated by subcloning the RORγ-LBD into pET-41a, a vector which expresses GST fusion proteins in bacteria.
The cloning steps for GST-RORγ were as follows. The mRORγ LBD was excised from Gal4-mRORγ (see above for cloning steps) at BamHI and HindIII sites of Sequence 1 and cloned into the corresponding sites of pET-41a(+) (EMD Biosciences, San Diego, Calif.). A GST-mRORγ fragment was then excised from pET-41a(+) at XbaI and XhoI sites and cloned into a pcDNA3.1vector (Invitrogen, Carlsbad, Calif.) restricted at NheI and XhoI sites. Plasmid GST-mRORγ-pcDNA3.1 was used as a PCR template to generate a GST-mRORγ fragment that was later cloned into pENTR/D-TOPO vector (Invitrogen, Carlsbad, Calif.) by standard cloning techniques recommended by the manufacturer of the vector. The nucleotide sequence of GST-mRORγ is shown below:
For baculoviral expression of RORγ, the cDNA fragment of GST-RORγ— LBD, was subcloned from pET-41a into the pENTR/D-TOPO vector using a commercially-available kit (BaculoDirect, Invitrogen). Briefly, GST-RORγ carried by pENTR/D-TOPO was transfected into mono-layer Sf9 cells (8×10^5/well in 6-well plates) by Cellfectin (Invitrogen). Sf9 cells were incubated at 27° C. in a non-humidified incubator for 72 hours. Cell media was collected as P1 viral stock and used to further infect Sf9 cells to generate P2 and P3 virus. […] A plaque assay was performed to determine the titer of P3 virus and to isolate single plaques. P4 virus was generated from a single plaque and propagated on a larger scale.
Adherent SF9 cells were infected with baculovirus carrying GST-RORγ and were cultured for 72 hours. Sf9 cell were then subject to a brief sonication in a lysis buffer (20 mM phosphate, pH 6.8, 50 mM KCl, 50 mM NaCl, 0.5 mM EDTA, 50% glycerol, 0.001% NP-40 and 1 mM DTT) and centrifuged at 3000 rpm for 15 minutes. […] Cleared cell lysate was stored at −70° C. and is directly utilized in the coregulatory peptide recruitment assay.
The labeled probes anti-GST-APC and SA-RPE were purchased from Prozyme (San Leandro, Calif.). Compounds were added directly from a DMSO solution to a final concentration of 1-2% DMSO. Fluorescence was measured on a Wallac Victor 2 V plate reader equipped with a 670/40 nm filter (Omega Optical, Brattleboro, Vt.) for APC emission (Channel A) and a 600/25 bandpass filter for monitoring the RPE emission (Channel B).

[1] = biological target: T2, hFXR (farnesoid X receptor) (Homo sapiens, UniProt Q96RI1); experiment: Crossreactive receptor transcriptional assay (Gal4 hybrid); assay type: cell-based
T2 construct: 192-473; expressed in transfected cells; host or cells: CHO cells, transient transfection
T2 sequence (Q96RI1 192-472 isoform Q96RI1-2): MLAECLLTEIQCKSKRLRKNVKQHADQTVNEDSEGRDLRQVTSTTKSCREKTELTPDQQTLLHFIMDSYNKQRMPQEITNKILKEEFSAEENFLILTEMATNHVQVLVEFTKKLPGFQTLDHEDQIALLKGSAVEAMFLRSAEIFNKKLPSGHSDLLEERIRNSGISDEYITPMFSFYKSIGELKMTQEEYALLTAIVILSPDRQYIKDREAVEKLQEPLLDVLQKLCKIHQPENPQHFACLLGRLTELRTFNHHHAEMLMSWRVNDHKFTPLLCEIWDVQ

hPPARγ = biological target: T3, hPPARγ (Homo sapiens, UniProt P37231); experiment: as above; assay type: cell-based
T3 construct: 175-477; expressed in transfected cells; host or cells: CHO cells, transient transfection
T3 sequence (P37231 175-477 isoform P37231-2): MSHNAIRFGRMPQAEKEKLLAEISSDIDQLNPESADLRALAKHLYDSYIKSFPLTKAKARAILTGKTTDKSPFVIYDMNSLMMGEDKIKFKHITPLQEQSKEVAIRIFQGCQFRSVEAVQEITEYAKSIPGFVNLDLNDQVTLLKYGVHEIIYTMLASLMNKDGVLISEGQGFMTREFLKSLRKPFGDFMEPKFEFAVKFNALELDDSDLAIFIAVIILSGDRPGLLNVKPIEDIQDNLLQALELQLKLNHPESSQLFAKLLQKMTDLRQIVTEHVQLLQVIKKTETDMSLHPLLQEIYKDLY

[2] = Table 4A, peptide K1, no agonist present, medians of two or more assays, unit inferred, read-out: EC50 Biochemical
[3] = Table 6, read-out: Potency (EC50) at hFXR
[4] = Table 6, read-out: Potency (EC50) at hPPARγ

EC50 (mRORγ LBD; [2])	EC50 [1, 3]	EC50 (hPPARγ; [4])	Structure (SMILES)	other results
	> 10 µM	> 10 µM	CCN(c1ccc(C(O)(C(F)(F)F)C(F)(F)F)cc1)S(=O)(=O)c1ccc([N+](=O)[O-])cc1 [OR-1050, N-Ethyl-4-nitro-N-[4-(2,2,2-trifluoro-1-hydroxy-1-trifluoromethyl-ethyl)-phenyl]-benzenesulfonamide]	EC50 (mRORγ LBD; Table 1, mRORγ and peptide K1, read-out: Assay EC50 in micromolar at mRORγ Biochemical): 0.9 µM; EC50 (mRORγ LBD; Table 7, taken from Table 1 (peptide K1), read-out: Assay EC50 in micromolar at mRORγ Biochemical): 0.9 µM
		> 10 µM	O=S(=O)(c1ccccc1)N(CC(F)(F)F)c1ccc(C(O)(C(F)(F)F)C(F)(F)F)cc1 [Compound T0901317, N-(2,2,2-Trifluoro-ethyl)-N-[4-(2,2,2-trifluoro-1-hydroxy-1-trifluoromethyl-ethyl)-phenyl]-benzenesulfonamide, reference compound]	
1.61 µM	> 10 µM	> 10 µM	CCn1c(CNc2ccc(Cl)cc2)nnc1SCC(=O)Nc1cccc2ccccc12 [OR-133008, 2-{5-[(4-Chloro-phenylamino)-methyl]-4-ethyl-4H-[1,2,4]triazol-3-ylsulfanyl}-N-naphthalen-1-yl-acetamide]	

Second part, the compound before the results:

Structure (SMILES)	EC50 (mRORγ LBD; [2])	EC50 [1, 3]	EC50 (hPPARγ; [4])	other results
CC(=O)O[C@H]1CC[C@@]2(C)C(CC[C@]3(C)C2C(=O)C=C2C4[C@@H](C)[C@H](C)CC[C@]4(C(=O)O)CC[C@]23C)C1(C)C (stereo in doubt) [OR-13571, 10-Acetoxy-1,2,6a,6b,9,9,12a-heptamethyl-13-oxo-1,3,4,5,6,6a,6b,7,8,8a,9,10,11,12,12a,12b,13,14b-octadecahydro-2H-picene-4a-carboxylic acid]	1.2 µM	> 10 µM	> 10 µM	
COC(C)CCC(C)C1CCC2C3CC(O)C4CC(O)CCC4(C)C3CCC12C (stereo not drawn) [OR-12872, 17-(4-Methoxy-1-methyl-pentyl)-10,13-dimethyl-hexadecahydro-cyclopenta[a]phenanthrene-3,6-diol]		> 10 µM	> 10 µM	EC50 (mRORγ LBD; Table 2, agonists, biotinylated peptide K, 50% of estimated maximum FRET signal, read-out: EC50 in micromolar at mRORγ Biochemical): 0.052 µM; EC50 (mRORγ LBD; agonist, read-out: potency in the biochemical assay): < 0.1 µM
C[C@@H]1CC[C@@]2(OC1)O[C@H]1C[C@H]3[C@@H]4CC[C@H]5C[C@@H](O)CC[C@]5(C)[C@H]4C[C@@H](O)[C@]3(C)[C@H]1[C@@H]2C [OR-885, 5α,20α, 22α, 25D-SPIROSTAN-3β, 12β-DIOL]				EC50 (mRORγ LBD): 2.5 µM; EC50 [1]: > 10 µM; EC50 (hPPARγ): > 10 µM
COc1c(C=NNc2nc(N3CCCCC3)nc(N3CCCCC3)n2)cccc1[N+](=O)[O-] [OR-2161, N-(4,6-Di-piperidin-1-yl-[1,3,5]triazin-2-yl)-N′-(2-methoxy-3-nitro-benzylidene)-hydrazine]	4.5 µM	> 10 µM	> 10 µM	
